Measured values as given in ChEMBL document CHEMBL6153083, “Synthesis, Structural Modification, and Antismall Cell Lung Cancer Activity of 3-Arylisoquinolines with Dual Inhibitory Activity on Topoisomerase I and II” (J Med Chem, 2025).

How the values were obtained:
[1] = Antiproliferative activity against human NCI-H196 cells incubated for 72 hrs; format: functional, cell-based; conditions: NCI-H196, 72 h
NCI-H446 = test: Antiproliferative activity against human NCI-H446 cells incubated for 72 hrs; format: functional, cell-based; conditions: NCI-H446, 72 h
NCI-H1048 = test: Antiproliferative activity against human NCI-H1048 cells incubated for 72 hrs; format: functional, cell-based; conditions: NCI-H1048, 72 h
NCI-H82 = test: Antiproliferative activity against human NCI-H82 cells incubated for 72 hrs; format: functional, cell-based; conditions: NCI-H82, 72 h
SHP77 = test: Antiproliferative activity against human SHP77 cells incubated for 72 hrs; format: functional, cell-based; conditions: SHP77, 72 h
NCI-H209 = test: Antiproliferative activity against human NCI-H209 cells incubated for 72 hrs; format: functional, cell-based; conditions: NCI-H209, 72 h
NCI-H146 = test: Antiproliferative activity against human NCI-H146 cells incubated for 72 hrs; format: functional, cell-based; conditions: NCI-H146, 72 h
[2] = Antiproliferative activity against human L02 cells incubated for 72 hrs; format: toxicity, cell-based
[3] = Antiproliferative activity against human BEAS-2B cells incubated for 72 hrs; format: toxicity, cell-based

## CC1CCCN(Cc2cc3c(cc2-c2cc4ccc5c(c4cn2)OCO5)OCO3)C1 (stereo not drawn)
[1]
  IC50: 27.4 µM
NCI-H446
  IC50: 23.1 µM
NCI-H1048
  IC50: 10 µM
NCI-H82
  IC50: 29.8 µM
SHP77
  IC50: 17.9 µM
NCI-H209
  IC50: 40.6 µM
NCI-H146
  IC50: 31.4 µM
[2]
  IC50 at 72 h: 43 µM
[3]
  IC50 at 72 h: 14.3 µM

## CC(C)C1CCCCCN1Cc1cc2c(cc1-c1cc3ccc4c(c3cn1)OCO4)OCO2 (stereo not drawn)
[1]
  IC50: 17.9 µM
NCI-H446
  IC50: 1.22 µM
NCI-H1048
  IC50: 18.1 µM
NCI-H82
  IC50: 1.72 µM
SHP77
  IC50: 8.23 µM
NCI-H209
  IC50: 18.1 µM
[2]
  IC50 at 72 h: 20.5 µM
[3]
  IC50 at 72 h: 26.5 µM

## c1c(CN2CCC(C3CC3)CC2)c(-c2cc3ccc4c(c3cn2)OCO4)cc2c1OCO2
[1]
  IC50: > 100 µM
NCI-H446
  IC50: 15.5 µM
NCI-H1048
  IC50: > 100 µM
NCI-H82
  IC50: > 100 µM
SHP77
  IC50: > 100 µM
NCI-H209
  IC50: > 100 µM
NCI-H146
  IC50: 37.8 µM
[2]
  IC50 at 72 h: 83.6 µM
[3]
  IC50 at 72 h: > 100 µM

## CC(C)(C)C(=O)C1CCN(Cc2cc3c(cc2-c2cc4ccc5c(c4cn2)OCO5)OCO3)CC1
[1]
  IC50: > 100 µM
NCI-H446
  IC50: 24.5 µM
NCI-H1048
  IC50: > 100 µM
NCI-H82
  IC50: > 100 µM
SHP77
  IC50: > 100 µM
NCI-H209
  IC50: > 100 µM
NCI-H146
  IC50: > 100 µM
[2]
  IC50 at 72 h: > 100 µM
[3]
  IC50 at 72 h: > 100 µM

## CC(=O)C1CCN(Cc2cc3c(cc2-c2cc4ccc5c(c4cn2)OCO5)OCO3)CC1
[1]
  IC50: 51.5 µM
NCI-H446
  IC50: 49.2 µM
NCI-H1048
  IC50: > 100 µM
NCI-H82
  IC50: > 100 µM
SHP77
  IC50: 93.9 µM
NCI-H209
  IC50: > 100 µM
NCI-H146
  IC50: > 100 µM
[2]
  IC50 at 72 h: > 100 µM
[3]
  IC50 at 72 h: > 100 µM

## OCC1CN(Cc2cc3c(cc2-c2cc4ccc5c(c4cn2)OCO5)OCO3)C1
[1]
  IC50: 42.5 µM
NCI-H446
  IC50: 60.7 µM
NCI-H1048
  IC50: 61.4 µM
NCI-H82
  IC50: 80.3 µM
SHP77
  IC50: 63.4 µM
NCI-H209
  IC50: 79.5 µM
NCI-H146
  IC50: > 100 µM
[2]
  IC50 at 72 h: > 100 µM
[3]
  IC50 at 72 h: 23 µM

## OCC1CCN(Cc2cc3c(cc2-c2cc4ccc5c(c4cn2)OCO5)OCO3)C1 (stereo not drawn)
[1]
  IC50: 36 µM
NCI-H446
  IC50: 68.4 µM
NCI-H1048
  IC50: 34.6 µM
NCI-H82
  IC50: 61.5 µM
SHP77
  IC50: 32.9 µM
NCI-H209
  IC50: 56.6 µM
NCI-H146
  IC50: 17.1 µM
[2]
  IC50 at 72 h: 43.2 µM
[3]
  IC50 at 72 h: 26.2 µM

## CCCC1CCN(Cc2cc3c(cc2-c2cc4ccc5c(c4cn2)OCO5)OCO3)CC1
[1]
  IC50: 10.2 µM
NCI-H446
  IC50: 14.5 µM
NCI-H1048
  IC50: > 100 µM
NCI-H82
  IC50: > 100 µM
SHP77
  IC50: 28.2 µM
NCI-H209
  IC50: 64.1 µM
NCI-H146
  IC50: 37 µM
[2]
  IC50 at 72 h: 84.2 µM
[3]
  IC50 at 72 h: > 100 µM

## CN1CCC(C2CCN(Cc3cc4c(cc3-c3cc5ccc6c(c5cn3)OCO6)OCO4)CC2)CC1
[1]
  IC50: 31.8 µM
NCI-H446
  IC50: 16.9 µM
NCI-H1048
  IC50: 20.2 µM
NCI-H82
  IC50: 12.4 µM
SHP77
  IC50: 15.7 µM
NCI-H209
  IC50: 26.8 µM
NCI-H146
  IC50: 11.7 µM
[2]
  IC50 at 72 h: > 100 µM
[3]
  IC50 at 72 h: 12.2 µM

## COCC1CCN(Cc2cc3c(cc2-c2cc4ccc5c(c4cn2)OCO5)OCO3)CC1
[1]
  IC50: 45.7 µM
NCI-H446
  IC50: 39.3 µM
NCI-H1048
  IC50: 44.1 µM
NCI-H82
  IC50: 55.6 µM
SHP77
  IC50: 38.5 µM
NCI-H209
  IC50: 53.1 µM
NCI-H146
  IC50: 37.1 µM
[2]
  IC50 at 72 h: 48.4 µM
[3]
  IC50 at 72 h: 28.2 µM

## FC1(F)CCCN(Cc2cc3c(cc2-c2cc4ccc5c(c4cn2)OCO5)OCO3)CC1
[1]
  IC50: 56.4 µM
NCI-H446
  IC50: 39.3 µM
NCI-H1048
  IC50: 19.1 µM
NCI-H82
  IC50: 31.3 µM
SHP77
  IC50: 31.3 µM
NCI-H209
  IC50: 45 µM
[2]
  IC50 at 72 h: 36.6 µM
[3]
  IC50 at 72 h: 24.2 µM

## FC1CCCN(Cc2cc3c(cc2-c2cc4ccc5c(c4cn2)OCO5)OCO3)CC1 (stereo not drawn)
[1]
  IC50: 35.7 µM
NCI-H446
  IC50: 20.6 µM
NCI-H1048
  IC50: 17.7 µM
NCI-H82
  IC50: 37.8 µM
SHP77
  IC50: 42.4 µM
NCI-H209
  IC50: 58.3 µM
[2]
  IC50 at 72 h: > 100 µM
[3]
  IC50 at 72 h: 33.7 µM

## COc1ccc2cc3[n+](cc2c1OC)CCc1cc2c(cc1-3)OCO2 [BERBERINE]
[1]
  IC50: > 100 µM
NCI-H446
  IC50: 78.6 µM
NCI-H1048
  IC50: > 100 µM
SHP77
  IC50: > 100 µM
NCI-H209
  IC50: 65 µM
NCI-H146
  IC50: > 100 µM
[2]
  IC50 at 72 h: > 100 µM
[3]
  IC50 at 72 h: > 100 µM

## CCC(=O)C1CCN(Cc2cc3c(cc2-c2cc4ccc5c(c4cn2)OCO5)OCO3)CC1
[1]
  IC50: 34.5 µM
NCI-H446
  IC50: 21.2 µM
NCI-H1048
  IC50: > 100 µM
NCI-H82
  IC50: 48.8 µM
SHP77
  IC50: 26.5 µM
NCI-H209
  IC50: > 100 µM
NCI-H146
  IC50: 42.6 µM
[2]
  IC50 at 72 h: 41.7 µM
[3]
  IC50 at 72 h: > 100 µM

## c1c(CN2CCCCCC2)c(-c2cc3ccc4c(c3cn2)OCO4)cc2c1OCO2
[1]
  IC50: 24.3 µM
NCI-H446
  IC50: 15.2 µM
NCI-H1048
  IC50: 15.4 µM
NCI-H82
  IC50: 16.9 µM
SHP77
  IC50: 18 µM
NCI-H209
  IC50: 39.5 µM
[2]
  IC50 at 72 h: 14.4 µM
[3]
  IC50 at 72 h: 12.3 µM

## CC1(F)CN(Cc2cc3c(cc2-c2cc4ccc5c(c4cn2)OCO5)OCO3)C1
[1]
  IC50: > 100 µM
NCI-H446
  IC50: 38.5 µM
NCI-H1048
  IC50: > 100 µM
NCI-H82
  IC50: > 100 µM
SHP77
  IC50: > 100 µM
NCI-H209
  IC50: > 100 µM
[2]
  IC50 at 72 h: > 100 µM
[3]
  IC50 at 72 h: > 100 µM
